Reference: ChEMBL document CHEMBL4017447, “Indenocinnoline derivatives as G-quadruplex binders, topoisomerase IIα inhibitors and antiproliferative agents” (Bioorg Med Chem, 2017)
pIC50: −log10 of the molar value. Values belong to the compound of their own block, whether it stands above or below them. Active and inactive are the calls of the source. No cut-off for these calls is given here.

How the values were obtained:
[1] = system: Escherichia coli; test: Binding affinity to Escherichia coli supercoiled pBR322 DNA assessed as DNA intercalation by measuring DNA unwinding up to 100 uM measured after 1 hr by ethidium bromide staining based agarose gel electrophoresis
[2] = Binding affinity to 5'-dabcyl/3'-fluorescein labeled double stranded DNA (unknown origin) assessed as change in melting temperature at 10 uM by fluorescence assay
[3] = target: DNA topoisomerase 2-alpha (Homo sapiens, UniProt P11388); test: Inhibition of human topoisomerase 2alpha-mediated kinetoplast DNA decatenation after 60 mins by ethidium bromide staining based agarose gel electrophoresis
[4] = system: HeLa; test: Cytotoxicity against human HeLa cells after 72 hrs by MTT assay; assay type: functional, cell-based
[5] = Inhibition of Escherichia coli DNA topoisomerase 4 decatenation activity using kinetoplast DNA as substrate after 60 mins by ethidium bromide staining based agarose gel electrophoresis
[6] = system: MCF7; test: Cytotoxicity against human MCF7 cells after 72 hrs by MTT assay; assay type: functional, cell-based; conditions: MCF7, 72 h
[7] = organism: Homo sapiens; test: Binding affinity to 5'-dabcyl/3'-fluorescein labeled human telomeric sequence G-quadruplex DNA assessed as change in melting temperature at 10 uM by fluorescence assay
[8] = Binding affinity to 5'-dabcyl/3'-fluorescein labeled cKit G-quadruplex DNA (unknown origin) assessed as change in melting temperature at 10 uM by fluorescence assay
[9] = organism: Homo sapiens; test: Binding affinity to human telomeric 22 G-quadruplex DNA assessed as compound concentration required for 30% displacement of thiazole orange from telomeric 22 G-quadruplex DNA by fluorescent intercalator displacement assay
[10] = system: Escherichia coli; test: Binding affinity to Escherichia coli supercoiled pBR322 DNA assessed as DNA intercalation by measuring DNA unwinding at 10 uM measured after 1 hr by ethidium bromide staining based agarose gel electrophoresis
[11] = Binding affinity to cKit G-quadruplex DNA (unknown origin) assessed as compound concentration required for 30% displacement of thiazole orange from cKit G-quadruplex DNA by fluorescent intercalator displacement assay
[12] = Binding affinity to double stranded DNA (unknown origin) assessed as compound concentration required for 30% displacement of thiazole orange from double stranded DNA by fluorescent intercalator displacement assay
[13] = system: Escherichia coli; test: Inhibition of Escherichia coli DNA topoisomerase 4 decatenation activity up to 100 uM using kinetoplast DNA as substrate after 60 mins by ethidium bromide staining based agarose gel electrophoresis
[14] = system: Escherichia coli; test: Binding affinity to Escherichia coli supercoiled pBR322 DNA assessed as DNA intercalation by measuring DNA unwinding at 100 uM measured after 1 hr by ethidium bromide staining based agarose gel electrophoresis
[15] = system: HeLa; test: Potency index, ratio of ametantrone IC50 to compound IC50 for human HeLa cells; assay type: functional
[16] = system: MCF7; test: Potency index, ratio of ametantrone IC50 to compound IC50 for human MCF7 cells; assay type: functional
[17] = system: Escherichia coli; test: Binding affinity to Escherichia coli supercoiled pBR322 DNA assessed as DNA intercalation by measuring DNA unwinding at 0.1 to 10 uM measured after 1 hr by ethidium bromide staining based agarose gel electrophoresis

Chain of DNA topoisomerase 2-alpha (P11388 whole entry): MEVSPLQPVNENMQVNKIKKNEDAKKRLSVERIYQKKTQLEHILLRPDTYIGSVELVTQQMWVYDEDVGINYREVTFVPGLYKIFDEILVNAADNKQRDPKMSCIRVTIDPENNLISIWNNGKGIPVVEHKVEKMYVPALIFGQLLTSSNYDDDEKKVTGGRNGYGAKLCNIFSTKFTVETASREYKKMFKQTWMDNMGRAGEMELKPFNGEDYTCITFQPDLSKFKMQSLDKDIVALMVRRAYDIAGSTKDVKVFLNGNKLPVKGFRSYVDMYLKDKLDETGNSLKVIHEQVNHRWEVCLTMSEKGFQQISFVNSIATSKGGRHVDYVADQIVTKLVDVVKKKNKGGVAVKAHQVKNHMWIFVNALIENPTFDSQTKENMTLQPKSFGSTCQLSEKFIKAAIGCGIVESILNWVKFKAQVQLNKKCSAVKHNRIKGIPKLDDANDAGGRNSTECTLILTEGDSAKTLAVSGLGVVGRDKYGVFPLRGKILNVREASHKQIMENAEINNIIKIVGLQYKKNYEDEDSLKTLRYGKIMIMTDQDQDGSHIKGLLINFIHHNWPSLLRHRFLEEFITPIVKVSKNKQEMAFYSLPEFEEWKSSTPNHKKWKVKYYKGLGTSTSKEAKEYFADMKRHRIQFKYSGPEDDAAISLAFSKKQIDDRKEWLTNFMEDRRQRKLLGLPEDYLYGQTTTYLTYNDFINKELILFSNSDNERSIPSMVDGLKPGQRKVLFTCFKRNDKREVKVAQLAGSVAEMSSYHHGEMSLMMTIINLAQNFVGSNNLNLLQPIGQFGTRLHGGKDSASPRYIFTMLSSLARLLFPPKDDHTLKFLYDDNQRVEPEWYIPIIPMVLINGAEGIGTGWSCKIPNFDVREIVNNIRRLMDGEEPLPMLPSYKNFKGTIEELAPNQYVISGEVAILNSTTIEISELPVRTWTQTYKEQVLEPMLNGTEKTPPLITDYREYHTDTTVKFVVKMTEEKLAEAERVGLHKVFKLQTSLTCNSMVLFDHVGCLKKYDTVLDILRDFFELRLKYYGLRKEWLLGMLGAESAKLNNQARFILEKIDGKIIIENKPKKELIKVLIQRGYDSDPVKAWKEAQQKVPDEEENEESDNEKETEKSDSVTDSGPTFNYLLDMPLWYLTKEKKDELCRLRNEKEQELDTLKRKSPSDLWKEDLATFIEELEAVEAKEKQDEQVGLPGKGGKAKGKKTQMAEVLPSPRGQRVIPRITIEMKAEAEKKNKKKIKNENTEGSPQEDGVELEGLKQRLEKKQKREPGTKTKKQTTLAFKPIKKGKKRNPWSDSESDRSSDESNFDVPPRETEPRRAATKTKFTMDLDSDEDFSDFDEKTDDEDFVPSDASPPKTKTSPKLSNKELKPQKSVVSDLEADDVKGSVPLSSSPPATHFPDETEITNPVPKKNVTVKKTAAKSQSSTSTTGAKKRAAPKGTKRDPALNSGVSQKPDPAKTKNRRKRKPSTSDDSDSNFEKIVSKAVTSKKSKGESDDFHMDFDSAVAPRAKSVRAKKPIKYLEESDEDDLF

ΔTm [2]: 0.53 °C
ΔTm [7]: 3.77 °C
ΔTm [8]: 3.01 °C
SMILES: CCN(CC)CCCCNC(=O)c1ccc2nnc3c(c2c1)C(=O)c1ccccc1-3

Activity [9]: inactive
Activity [14]: Active
deltaTm [2]: inactive
pIC50 [3]: < 4.00
Activity [11]: 2.08 µM
pIC50 [5]: < 4.00
Activity [12]: 16 µM
ΔTm [7]: 5.69 °C
ΔTm [8]: 9.18 °C
SMILES: CN(C)CCOc1ccc2c(ccc3c4c(nnc32)-c2ccccc2C4=O)c1
pIC50 [4]: < 4.00
pIC50 [6]: < 4.00

Activity [9]: 2.43 µM
Activity [14]: Active
ΔTm [2]: 1.96 °C
pIC50 [3]: 4.54
Activity [11]: 0.95 µM
pIC50 [5]: < 4.00
Activity [12]: 4.06 µM
ΔTm [7]: 20.8 °C
ΔTm [8]: 23.1 °C
SMILES: CN(C)CCCOc1ccc2ccc3c4c(nnc3c2c1)-c1ccccc1C4=O
pIC50 [4]: 5.55
pIC50 [6]: 5.01

ΔTm [2]: 0.9 °C
ΔTm [7]: 6.63 °C
ΔTm [8]: 5.42 °C
SMILES: O=C(NCCCCN1CCCCC1)c1ccc2nnc3c(c2c1)C(=O)c1ccccc1-3

deltaTm [2]: inactive
ΔTm [7]: 4.82 °C
ΔTm [8]: 4.37 °C
SMILES: O=C(NCCCCN1CCOCC1)c1ccc2nnc3c(c2c1)C(=O)c1ccccc1-3

Activity [17]: Active
SMILES: COc1cccc2c1C(=O)c1c(O)c3c(c(O)c1C2=O)C[C@@](O)(C(=O)CO)C[C@@H]3O[C@H]1C[C@H](N)[C@H](O)[C@H](C)O1

The next lines start with the compound.

SMILES: CN(C)CCNC(=O)c1ccc2nnc3c(c2c1)C(=O)c1ccccc1-3
Activity [1]: inactive
ΔTm [2]: 1.19 °C
pIC50 [3]: 4.87
pIC50 [4]: 6.46
pIC50 [5]: < 4.00
pIC50 [6]: 6.55
ΔTm [7]: 5.95 °C
ΔTm [8]: 6.8 °C

SMILES: CN(C)CCCNC(=O)c1ccc2nnc3c(c2c1)C(=O)c1ccccc1-3
Activity [1]: inactive
ΔTm [2]: 1.95 °C
pIC50 [3]: 5.31
pIC50 [4]: 6.57
pIC50 [5]: < 4.00
pIC50 [6]: 6.77
ΔTm [7]: 7.91 °C
ΔTm [8]: 8.5 °C

SMILES: O=C1c2ccccc2-c2nnc3ccccc3c21
Activity [1]: inactive
pIC50 [3]: < 4.00
pIC50 [4]: 6.24
pIC50 [5]: < 4.00
pIC50 [6]: 6.09

SMILES: O=C1c2ccccc2C(=O)c2c(NCCNCCO)ccc(NCCNCCO)c21 [AMETANTRONE]
pIC50 [4]: 6.05
pIC50 [6]: 6.29

SMILES: CN(C)CCOc1ccc2ccc3c4c(nnc3c2c1)-c1ccccc1C4=O
Activity [9]: 0.52 µM
ΔTm [2]: 5.27 °C
pIC50 [3]: 5.26
Activity [10]: Active
pIC50 [4]: 5.22
Activity [11]: 0.47 µM
pIC50 [6]: 5.43
Activity [12]: 1.36 µM
ΔTm [7]: 25.6 °C
inhibition [13]: inactive
ΔTm [8]: 28 °C

SMILES: CN(C)CCCCNC(=O)c1ccc2nnc3c(c2c1)C(=O)c1ccccc1-3
Ratio IC50 [15]: 20
Activity [1]: inactive
Ratio IC50 [16]: 6
ΔTm [2]: 2.7 °C
pIC50 [3]: 5.15
pIC50 [4]: 7.35
pIC50 [5]: < 4.00
pIC50 [6]: 7.07
ΔTm [7]: 9.35 °C
ΔTm [8]: 12.4 °C

SMILES: COc1ccc2cc3[n+](cc2c1OC)CCc1cc2c(cc1-3)OCO2
Activity [9]: > 10 µM
ΔTm [2]: 0.34 °C
Activity [11]: > 10 µM
ΔTm [7]: 9.68 °C
ΔTm [8]: 10.3 °C

SMILES: CN(C)CCCOc1ccc2c(ccc3c4c(nnc32)-c2ccccc2C4=O)c1
Activity [9]: 4.75 µM
Activity [14]: Active
ΔTm [2]: 0.85 °C
pIC50 [3]: 4.28
pIC50 [4]: 5.52
Activity [11]: 1.5 µM
pIC50 [5]: < 4.00
pIC50 [6]: 5.17
Activity [12]: 7.81 µM
ΔTm [7]: 16.1 °C
ΔTm [8]: 19.2 °C

SMILES: CN(C)CCCn1c(=O)c2nc3ccccc3nc2c2ccccc21
Activity [9]: inactive
Activity [11]: 3.57 µM
Activity [12]: 10.9 µM

SMILES: CO[C@@H]1[C@@H](OC(N)=O)[C@@H](O)[C@H](Oc2ccc3c(O)c(NC(=O)c4ccc(O)c(CC=C(C)C)c4)c(=O)oc3c2C)OC1(C)C [NOVOBIOCIN]
pIC50 [5]: 4.20
